Assay results as given in publication PMC10054091, “Maleic Acid as a Co-Former for Pharmaceutically Active GABA Derivatives: Mechanochemistry or Solvent Crystallization?” (Materials, 2023).
Values after ≈ are worked out from the molar mass of the structure shown. Values joined by “and” are separate entries in the source; they are usually repeats but may differ in a detail not shown here. Equal entries are not always repeated.

Key:
[1] = Solubility in aqueous medium by 1H-NMR of saturated solutions
Description: Solubilities: Determination of substance solubilities were performed through ^1H-NMR spectroscopy with a Bruker Avance III NMR-spectrometer at 600 MHz. Saturated solutions of crystalline material were placed in an incubator at 25 °C and moved for 60 min^−1. Three samples of each investigated substance were left for three days under these conditions. Subsequently, 50 μL of the solution was removed from the samples and added to 450 μL of D2O for ^1H-NMR measurements. Solubility was determined by the ratio of integrated solvent to substance peak. Solubility values are presented as averages over the recorded samples with the error margin according to their standard deviation. […]
7 Solubility determination details
Solubilities were determined with 1H-NMR. Three samples for each single compound and three samples for each received maleate gained through grinding or solvent crystalliz ation were prepared. For this, dispersions of the investigated compounds in water were prepared in such a way that no complete dissolution would occur after three days at 25 °C in an incubator shaking with 60 min -1. Subsequently, 50 μL of liquid were removed from the samples and added to 450 μL of D 2O prepared in an NMR-tube. 1H-NMR measurements were conducted on a Bruker Avance III NMR-spectrometer at 600 MHz. Solubilities were determined by phase and baseline correction of the received spectrum in MestReNova software x64 14.2.0, application of D 2O shift on the solvent peak from the MestReNova […]
database. Integration of a chosen signal in the received spectrum and furt her integration of the solvent signal. The latter signal was always integrated in the borders of 5.000 – 4.600 ppm, the product signals were integrated in as narrow a range as possible ( Table S7). Trace water in D 2O w as considered negligible. Solubilities were calculated by the following […]
Where S p is the solubility of the API in gL -1, M p is the molar mass of the targeted API in g mol-1, I w is the value of the water integral received, n is an adjustment factor necessary if […]
= 2 because solvent is water), M w is the molar mass of water in gmol -1 and ρw is the density of water at 25 °C in gL-1. Error was calculated as the standard deviation of the three recorded samples according to Equation 2.
Here V is the standard deviation, x is the average of the three solubility values, x̅ each single solubility value and n the number of samples, three.

[2] = cited from earlier work
[3] = given enough time
Description: PXRD: Powder patterns were recorded on a Rigaku Miniflex 300 powder diffractometer with a Cu-Source and Kα radiation at […] in Θ/2Θ-geometry. Measurements were conducted at ambient temperature in a range of 5–50° 2Θ.

[4] = API solubility, aqueous medium, 25 °C, saturated solutions after three days, 1H-NMR, average of three samples, _M = mechanochemically prepared sample
[5] = Table S7, water, 25 °C, three days, three samples, _sol = solvent crystallization, _mill = grinding
[6] = aqueous medium, 25 °C, three days
[7] = product obtained by grinding (mechanochemical), water, 25 °C, three days
[8] = product obtained from solution (solvent product), water, 25 °C, three days

Gabapentin maleate hydrate [2-MA•H2O]
Solubility [1, 4]: 241 ± 8 gL^−1 and 241 gL^−1
Sp ± V (solubility of the API ± standard deviation) [1, 5]: 241 ± 8 gL-1

CC(C)CC(CN)CC(=O)O (racemic) [(rac)-3•H2O, (rac)-Pregabalin hydrate, reference compound]
Sp ± V (solubility of the API ± standard deviation) [1, 5]: 33 ± 1 gL-1
Increase of API solubility in its maleate compared to the pure form ([1]; aqueous medium, 25 °C): 23 fold
solubility thermodynamic at 3 days ([1]; water): 33 mg/mL

NCC(CC(=O)O)c1ccccc1 (stereo not drawn) [compound 4, Phenibut, reference compound]
Sp ± V (solubility of the API ± standard deviation) [1, 5]: 15 ± 0.3 gL-1
Increase of API solubility in its maleate compared to the pure form ([1]; aqueous medium, 25 °C): eightfold
solubility thermodynamic at 3 days ([1]; water): 15 mg/mL (≈ 83.7 mM)
pKa of the acid function [2]: around 4

NCC(CC(=O)O)c1ccc(Cl)cc1 (stereo not drawn) [compound 5, Baclofen, reference compound]
Increase of API solubility in its maleate compared to the pure form [1]: twofold
Sp ± V (solubility of the API ± standard deviation) [1]: 3 ± 0.1 gL-1
solubility thermodynamic at 3 days ([1]; water): 3 mg/mL (≈ 14 mM)
pKa of the acid function [2]: around 4

NCC1(CC(=O)O)CCCCC1 [compound 2, Gabapentin, reference compound]
Sp ± V (solubility of the API ± standard deviation) [1, 5]: 174 ± 7 gL-1
solubility thermodynamic at 3 days ([1]; water): 174 mg/mL (≈ 1020 mM)
pKa of the acid function [2]: around 4

O=C(O)/C=C\C(=O)O [MA, Maleic acid]
Solubility [1]: 687 ± 44 gL^−1
Sp ± V (solubility of the API ± standard deviation) [1]: 687 ± 44 gL-1
solubility thermodynamic at 3 days ([1]; water): 687 mg/mL (≈ 5920 mM)
pKa1 [2]: 1.74
pKa2 [2]: 5.81

CC(C)C[C@H](CN)CC(=O)O [(S)-3, (S)-Pregabalin, reference compound]
Sp ± V (solubility of the API ± standard deviation) [1, 5]: 41 ± 1 gL-1
Increase of API solubility in its maleate compared to the pure form ([1]; aqueous medium, 25 °C, listed as (S)-Pregabalin): 21 fold
solubility thermodynamic at 3 days ([1]; water): 41 mg/mL (≈ 257 mM)

CC(C)C[C@H](CN)CC(=O)O [compound 3, Pregabalin, reference compound]
Increase of API solubility in its maleate compared to the pure form ([1]; aqueous medium, 25 °C, listed as Pregabalin): up to twentyfold
pKa of the acid function [2]: around 4

NCC(CC(=O)O)c1ccccc1.O=C(O)C=CC(=O)O (stereo not drawn) [4-MA, Phenibut maleate]
Solubility [1, 4]: 124 gL^−1
Solubility ([1]; API solubility, aqueous medium, 25 °C, saturated solutions after three days, 1H-NMR, average of three samples, _M = mechanochemically prepared sample, listed as 4-MA_M): 128 gL^−1
Sp ± V (solubility of the API ± standard deviation) ([1]; Table S7, water, 25 °C, three days, three samples, _sol = solvent crystallization, _mill = grinding, listed as 4-MA_mill): 128 ± 8 gL-1
Sp ± V (solubility of the API ± standard deviation) ([1]; Table S7, water, 25 °C, three days, three samples, _sol = solvent crystallization, _mill = grinding, listed as 4-MA_sol): 124 ± 4 gL-1
Change of solubility of the maleate versus the pure API (in words) [1, 6]: uniform increases in solubility

CC(C)CC(CN)CC(=O)O.O=C(O)C=CC(=O)O (racemic) [(rac)-3-MA, (rac)-Pregabalin maleate]
Solubility [1, 4]: 719 gL^−1
Solubility ([1]; API solubility, aqueous medium, 25 °C, saturated solutions after three days, 1H-NMR, average of three samples, _M = mechanochemically prepared sample, listed as (rac)-3-MA_M): 556 gL^−1
Sp ± V (solubility of the API ± standard deviation) ([1]; Table S7, water, 25 °C, three days, three samples, _sol = solvent crystallization, _mill = grinding, listed as (rac)-3-MA_mill): 559 ± 19 gL-1
Sp ± V (solubility of the API ± standard deviation) ([1]; Table S7, water, 25 °C, three days, three samples, _sol = solvent crystallization, _mill = grinding, listed as (rac)-3-MA_sol): 719 ± 10 gL-1
Solubility [1, 7]: 556 ± 19 gL^−1
Solubility [1, 8]: 719 ± 10 gL^−1

(S)-Pregabalin maleate hydrate [(S)-3-MA•H2O]
Solubility [1, 4]: 977 gL^−1
Solubility ([1]; API solubility, aqueous medium, 25 °C, saturated solutions after three days, 1H-NMR, average of three samples, _M = mechanochemically prepared sample, listed as (S)-3-MA•H2O_M): 809 gL^−1
Sp ± V (solubility of the API ± standard deviation) ([1]; Table S7, water, 25 °C, three days, three samples, _sol = solvent crystallization, _mill = grinding, listed as (S)-3-MA• H2O_mill): 809 ± 8 gL-1
Sp ± V (solubility of the API ± standard deviation) ([1]; Table S7, water, 25 °C, three days, three samples, _sol = solvent crystallization, _mill = grinding, listed as (S)-3-MA• H2O_sol): 977 ± 79 gL-1
Solubility [1, 7]: 809 ± 8 gL^−1
Solubility [1, 8]: 977 ± 79 gL^−1

CC(C)CC(CN)CC(=O)O.O=C(O)C=CC(=O)O (racemic) [(rac)-3-MA-I, (rac)-Pregabalin maleate I]
Phase stability of the solid form over time [3]: converts to (rac)-3-MA-II

NCC(CC(=O)O)c1ccc(Cl)cc1.O=C(O)C=CC(=O)O (stereo not drawn) [5-MA, Baclofen maleate]
Solubility [1, 4]: 6 gL^−1
Sp ± V (solubility of the API ± standard deviation) ([1]; Table S7, water, 25 °C, three days, three samples, _sol = solvent crystallization, _mill = grinding, listed as 5-MA_mill): 6 ± 0.6 gL-1
Sp ± V (solubility of the API ± standard deviation) ([1]; Table S7, water, 25 °C, three days, three samples, _sol = solvent crystallization, _mill = grinding, listed as 5-MA_sol): 6 ± 0.3 gL-1
Change of solubility of the maleate versus the pure API (in words) [1, 6]: uniform increases in solubility

NCC1(CC(=O)O)CCCCC1.O=C(O)C=CC(=O)O [2-MA, Gabapentin maleate]
Solubility [1, 4]: 218 ± 8 gL^−1
Solubility ([1]; API solubility, aqueous medium, 25 °C, saturated solutions after three days, 1H-NMR, average of three samples, _M = mechanochemically prepared sample, listed as 2-MA_M): 218 gL^−1
Sp ± V (solubility of the API ± standard deviation) [1, 5]: 218 ± 8 gL-1
